Literature values in patent publication US11077150B2, “Methods and compositions for treatment of eye conditions” (priority 2018, dated 2021).

Assays:
[1] = 75 symptomatic patients; nine-month trial; eye drops
[2] = topically applied in light mineral oil; volunteers
[3] = oral doses of up to 600 mg; elderly subjects
[4] = rat model of DR
CB2 receptors = CB2 receptors (Homo sapiens, UniProt P34972)
CB2 receptors, sequence (P34972 whole entry): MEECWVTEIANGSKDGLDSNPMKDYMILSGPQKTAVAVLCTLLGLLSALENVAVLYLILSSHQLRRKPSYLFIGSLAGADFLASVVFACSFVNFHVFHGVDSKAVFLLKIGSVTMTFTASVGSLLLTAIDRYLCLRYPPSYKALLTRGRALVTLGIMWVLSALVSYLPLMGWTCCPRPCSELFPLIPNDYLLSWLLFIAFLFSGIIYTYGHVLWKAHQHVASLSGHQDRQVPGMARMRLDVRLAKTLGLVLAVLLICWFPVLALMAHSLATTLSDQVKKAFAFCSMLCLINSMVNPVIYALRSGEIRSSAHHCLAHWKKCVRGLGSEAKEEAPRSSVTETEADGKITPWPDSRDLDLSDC

SMILES: CC(=O)NCCC(=O)N[C@@H](Cc1cnc[nH]1)C(=O)O [N-acetyl carnosine]
- glare sensitivity [1]: significant improvement
- visual acuity [1]: improvement

SMILES: CCCCCc1cc(O)c2c(c1)OC(C)(C)[C@@H]1CCC(C)=C[C@@H]21 [THC, Δ^9-tetrahydrocannabinol]
- adverse effects [2]: burning sensation, lid swelling
- effect on interocular pressure [2]: did not improve

SMILES: O=C(O)CCCCC1CCSS1 (stereo not drawn) [lipoic acid, α-lipoic acid]
- tolerability [3]: well tolerated

SMILES: C=C(C)[C@@H]1CCC(C)=C[C@H]1c1c(O)cc(CCCCC)cc1O [Cannabidiol, cannabidiol]
- water solubility: very low
- oxidative stress and neurotoxicity [4]: significantly reduced
- retinal cell death [4]: prevented
- affinity for CB2 receptors (CB2 receptors): low affinity
